# In patent US4985360A (priority 1987, dated 1991):
# System: bilirubin oxidase
# Experiment: Substrate specificity by oxygen consumption rate (electrode oxygen meter)
# Type: biochemical, Penicillium janthinellum
# Conditions: 0.1 mM substrate, 0.1 mM HgCl2 added
# Description: The intrinsic substrate specificity for various substrates was estimated based upon the oxygen consumption rate using an electrode oxygen meter. The measurements were effected under an addition of HgCl2 to the substrate solution up to a concentration of 0.1 mM. For the measurements, 0.1 mM solution of the substrate with addition of 0.1 ml of the enzyme solution as employed in the determination of the enzyme activity was used. […] Thus, it was confirmed that the bilirubin oxidase according to the present invention has a very high specificity to bilirubin.
row,Compound,Relative Activity (substrate specificity)
1,Chlorophyllin,0%
2,CC1=C(CCC(=O)O)c2cc3[nH]c(cc4nc(cc5[nH]c(cc1n2)c(C)c5C(C)O)C(C)=C4C(C)O)c(C)c3CCC(=O)O (stereo not shown) [Hematoporphyrin],0%
3,Hemoglobin,0%
4,C=CC1=C(C)/C(=C/C2=NC(=C\c3[nH]c(/C=C4\NC(=O)C(C)=C4C=C)c(C)c3CCC(=O)O)/C(CCC(=O)O)=C2C)NC1=O [Biliverdin],0%
5,Oc1ccccc1 [Phenol],0%
6,Oc1cccc(O)c1O [Pyrogallol],0%
7,Cc1c(N)c(=O)n(-c2ccccc2)n1C [4-Aminoantipyrin],0%
8,C=CC1=C(C)/C(=C/c2[nH]c(Cc3[nH]c(/C=C4\NC(=O)C(C)=C4C=C)c(C)c3CCC(=O)O)c(CCC(=O)O)c2C)NC1=O [Bilirubin],100%
9,Oc1ccccc1O [Catechol],0%
10,Hemin,0%
11,Oc1ccc(O)cc1 [Hydroquinone],0%
12,Chlorophyll,0%

# System: bilirubin oxidase
# Experiment: not given
# Type: biochemical, Penicillium janthinellum
# Conditions: additive (metal ion, EDTA) 1 mM; activity without addition = 100; 10 min
row,Compound,Relative Acty. (relative enzyme activity with additive)
1,[Cl-].[Cl-].[Zn+2] [ZnCl2],60%
2,[Ca+2].[Cl-].[Cl-] [CaCl2],31%
3,[Cl-].[Cl-].[Mg+2] [MgCl2],96%
4,Triazole,105%
5,[N-]=[N+]=[N-].[Na+] [NaN3],106%
6,[Cl][Pb][Cl] [PbCl2],377%
7,[Cl][Al]([Cl])[Cl] [AlCl3],88%
8,Cl.N [NH4 Cl],108%
9,[Ba+2].[Cl-].[Cl-] [BaCl2],49%
10,[Cl-].[Cl-].[Co+2] [CoCl2],0%
11,[Cl][Fe]([Cl])[Cl] [FeCl3],113%
12,[Cl][Mn][Cl] [MnCl2],10%
13,[Cl-].[K+] [KCl],106%
14,[Cl][Ni][Cl] [NiCl2],43%
15,[Cl-].[Cs+] [CsCl],139%
16,[Cl][Cu][Cl] [CuCL2],0%

# Same assay, conditions: bilirubin oxidase, 10 min
row,Compound,Relative Acty. (relative enzyme activity with additive)
1,"CCCCCCCCCCCCCCCC[N+](C)(C)C.[Br-] [CTMB, Cetyl trimethylammonium bromide]",277%
2,"CCCCCCCCCCCCCCCC[N+](C)(C)C.[Cl-] [CTMC, Cetyl trimethylammonium chloride]",316%

# Same assay, conditions: bilirubin oxidase, 10 min, 1000 µM
row,Compound,Relative Acty. (relative enzyme activity with additive)
1,NO [Hydroxylamine],108%
2,[Cl-].[Li+] [LiCl],112%
3,O=C(O)CN(CCN(CC(=O)O)CC(=O)O)CC(=O)O [EDTA],102%
4,[Cl-].[Na+] [NaCl],106%

# Same assay, conditions: metal ion 1 mM or surfactant 0.05%
row,Compound,Effect of additive on enzyme activity (in words)
1,[Cl][Pb][Cl] [PbCl2],accelerated considerably
2,[Cl][Hg][Cl] [HgCL2],accelerated considerably
3,"CCCCCCCCCCCCCCCC[N+](C)(C)C.[Cl-] [CTMC, Cetyl trimethylammonium chloride]",accelerated considerably
4,[Cl-].[Cl-].[Co+2] [CoCl2],inhibited
5,[Cl][Cu][Cl] [CuCL2],inhibited

# System: bilirubin oxidase
# Experiment: Km value determination
# Type: biochemical, Penicillium janthinellum
# Conditions: 0.1 ml enzyme solution, 2-20 mg bilirubin substrate solutions
row,Compound,Km
1,C=CC1=C(C)/C(=C/c2[nH]c(Cc3[nH]c(/C=C4\NC(=O)C(C)=C4C=C)c(C)c3CCC(=O)O)c(CCC(=O)O)c2C)NC1=O [Bilirubin],110 µM
